Experimental findings from ChEMBL document CHEMBL1759920, “C20-trifluoro-5-oxo-ETE: a metabolically stable 5-oxo-ETE derivative” (Bioorg Med Chem Lett, 2011) are described below.

Test [1] has as its system Neutrophil. As to the kind of experiment: Induction of intracellular calcium level in indo-1-labeled human neutrophils cells assessed as calcium mobilization relative to 5-oxo-ETE. Type of test: functional. (Calcium assays in cells follow changes in intracellular calcium, usually with a dye or a luminescent sensor.)
Test [2] concerns the target T1, Oxoeicosanoid receptor 1 (Homo sapiens, UniProt Q8TDS5). As to the kind of experiment: Desensitization of 5-oxo-ETE receptor in indo-1-labeled human neutrophils assessed as inhibition of 5-oxo-ETE-induced calcium mobilization. The test is classed as functional.
The target of test [3] is T1, Oxoeicosanoid receptor 1. As to the kind of experiment: Agonist activity at 5-oxo-ETE receptor in indo-1-labeled human neutrophils assessed as stimulation intracellular calcium level at 100 nM followed by 5-oxo-ETE addition at 2.5 mins in presence of digitonin added at 3.5 mins. Type of test: functional, cell-based.
Test [4] relates to Neutrophil. As to the kind of experiment: Induction of intracellular calcium level in indo-1-labeled human neutrophils cells assessed as calcium mobilization. The test is classed as functional, cell-based.

SMILES strings stand for the structures. Activity calls are given as the source filed them. The rule behind the calls is not given here.

T1 sequence (Q8TDS5 whole entry): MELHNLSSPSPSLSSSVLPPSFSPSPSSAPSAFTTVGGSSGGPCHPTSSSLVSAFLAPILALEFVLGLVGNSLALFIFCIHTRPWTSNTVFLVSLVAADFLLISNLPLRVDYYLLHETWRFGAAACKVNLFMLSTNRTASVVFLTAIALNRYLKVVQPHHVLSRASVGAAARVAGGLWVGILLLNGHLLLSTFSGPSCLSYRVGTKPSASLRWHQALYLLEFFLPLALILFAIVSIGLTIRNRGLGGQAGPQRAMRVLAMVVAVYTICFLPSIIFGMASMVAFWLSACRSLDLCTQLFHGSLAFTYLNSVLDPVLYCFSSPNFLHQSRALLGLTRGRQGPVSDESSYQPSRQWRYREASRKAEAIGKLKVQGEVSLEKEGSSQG

In general, IC50 refers to the point on the concentration scale where inhibition reaches its midpoint. As to `O=C(O)CCCC(=O)/C=C/C=C\C/C=C\C/C=C\CCCCC(F)(F)F`, the Activity in the test on Neutrophil [1] turned out to be 50%. The IC50 on Oxoeicosanoid receptor 1 [2] was found to be 7.5 nM. Besides, on Oxoeicosanoid receptor 1 [3], the result was Active.

As a reminder, the EC50 is the concentration at which the effect is half-maximal. For `CCCCC/C=C\C/C=C\C/C=C\C=C\C(=O)CCCC(=O)O` [5-OXO-ETE], the IC50 on Oxoeicosanoid receptor 1 [2] came to 3 nM. Moreover, in the test on Neutrophil [4], the EC50 is 4 nM.
